# Patent US9763960B2, “Wafer comprising steroid hormones” (LTS Lohmann Theraple-Systeme AG, priority 2005, dated 2017)
# Test: i.v. administration of 0.5 mg MENT (reference for bioavailability)
# Format: in vivo
# Settings: after i.v. admin. of 0.5 mg MENT
structure (smiles),measurement,value
"C[C@@H]1CC2=CC(=O)CC[C@@H]2[C@H]2CC[C@]3(C)[C@@H](O)CC[C@H]3[C@@H]21 [MENT, 7α-methyl-19-nortestosterone]",AUC(0-tlast) geomean dose-normalized,4.98 ng·h/mL
